Measured values published in ChEMBL document CHEMBL1201861, “Genomics of Drug Sensitity in Cancer screening data, Wellcome Trust Sanger Institute”.

Key:
Experiment in all cases: cells
[1] = test system: SNB-75; assay type: functional, cell-based, Homo sapiens; settings: Homo sapiens, SNB-75;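 also: cell viability assay measuring growth inhibition of human SNB-75 cells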
Description: SANGER: Inhibition of human SNB75 cell growth in a cell viability assay.

[2] = test system: RO82-W-1; assay type: functional, cell-based, Homo sapiens; settings: Homo sapiens, RO82-W-1;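 also: growth inhibition of human RO82-W-1 cells, measured with a cell viability assay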
Description: SANGER: Inhibition of human RO82-W-1 cell growth in a cell viability assay.

[3] = test system: RCC10RGB; assay type: functional, cell-based, Homo sapiens; settings: Homo sapiens, RCC10RGB;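 also: growth inhibition of human RCC10RGB cells, read out by a cell viability assay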
Description: SANGER: Inhibition of human RCC10RGB cell growth in a cell viability assay.

[4] = test system: IGR-1; assay type: functional, cell-based, Homo sapiens; settings: Homo sapiens, IGR-1;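 also: growth inhibition of human IGR-1 cells, read out with a cell viability assay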
Description: SANGER: Inhibition of human IGR-1 cell growth in a cell viability assay.

[5] = test system: NCI-H2030; assay type: functional, cell-based, Homo sapiens; settings: Homo sapiens, NCI-H2030;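 also: growth inhibition of human NCI-H2030 cells, read out by a cell viability assay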
Description: SANGER: Inhibition of human NCI-H2030 cell growth in a cell viability assay.

[6] = test system: GAMG; assay type: functional, cell-based, Homo sapiens; settings: Homo sapiens, GAMG;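 also: cell growth inhibition measured by a viability assay in the GAMG human cell line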
Description: SANGER: Inhibition of human GAMG cell growth in a cell viability assay.

[7] = test system: KYSE-180; assay type: functional, cell-based, Homo sapiens; settings: Homo sapiens, KYSE-180;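 also: growth inhibition of KYSE-180 cells, read out with a cell viability assay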
Description: SANGER: Inhibition of human KYSE-180 cell growth in a cell viability assay.

[8] = test system: COLO-824; assay type: functional, cell-based, Homo sapiens; settings: Homo sapiens, COLO-824
Description: SANGER: Inhibition of human COLO-824 cell growth in a cell viability assay.

[9] = test system: LB1047-RCC; assay type: functional, cell-based, Homo sapiens; settings: Homo sapiens, LB1047-RCC;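 also: inhibition of cell growth, determined with a cell viability assay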
Description: SANGER: Inhibition of human LB1047-RCC cell growth in a cell viability assay.

[10] = test system: GB-1; assay type: functional, cell-based, Homo sapiens; settings: Homo sapiens, GB-1;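 also: growth of GB-1 cells judged by a viability assay, IC50 marks the concentration inhibiting growth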
Description: SANGER: Inhibition of human GB-1 cell growth in a cell viability assay.

[11] = test system: SW1710; assay type: functional, cell-based, Homo sapiens; settings: Homo sapiens, SW1710;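 also: growth inhibition of SW1710 cells, determined with a cell viability assay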
Description: SANGER: Inhibition of human SW1710 cell growth in a cell viability assay.

[12] = test system: 769-P; assay type: functional, cell-based, Homo sapiens; settings: Homo sapiens, 769-P
Description: SANGER: Inhibition of human 769-P cell growth in a cell viability assay.

[13] = test system: UMC-11; assay type: functional, cell-based, Homo sapiens; settings: Homo sapiens, UMC-11;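 also: growth inhibition of UMC-11 cells, read out with a cell viability assay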
Description: SANGER: Inhibition of human UMC-11 cell growth in a cell viability assay.

[14] = test system: NB6; assay type: functional, cell-based, Homo sapiens; settings: Homo sapiens, NB6;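 also: growth inhibition of NB6 cells, read out by a cell viability assay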
Description: SANGER: Inhibition of human NB6 cell growth in a cell viability assay.

[15] = test system: C8166; assay type: functional, cell-based; settings: Homo sapiens;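 also: growth inhibition of human C8166 cells measured by a cell viability assay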
Description: SANGER: Inhibition of human C8166 cell growth in a cell viability assay.

[16] = test system: NB13; assay type: functional, cell-based, Homo sapiens; settings: Homo sapiens, NB13;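 also: cell viability readout measuring growth inhibition of human NB13 cells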
Description: SANGER: Inhibition of human NB13 cell growth in a cell viability assay.

[17] = test system: DMS-114; assay type: functional, cell-based, Homo sapiens; settings: Homo sapiens, DMS-114
[18] = test system: HSC-3; assay type: functional, cell-based, Homo sapiens; settings: Homo sapiens, HSC-3
Description: SANGER: Inhibition of human HSC-3 cell growth in a cell viability assay.

[19] = test system: HT-1376; assay type: functional, cell-based, Homo sapiens; settings: Homo sapiens, HT-1376
Description: SANGER: Inhibition of human HT-1376 cell growth in a cell viability assay.

[20] = test system: NCI-H2342; assay type: functional, cell-based; settings: Homo sapiens;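 also: growth inhibition of the cancer cell line, determined with a cell viability assay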
Description: SANGER: Inhibition of human NCI-H2342 cell growth in a cell viability assay.

[21] = test system: D-247MG; assay type: functional, cell-based, Homo sapiens; settings: Homo sapiens, D-247MG
Description: SANGER: Inhibition of human D-247MG cell growth in a cell viability assay.

[22] = test system: A-375; assay type: functional, cell-based, Homo sapiens; settings: Homo sapiens, A-375;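 also: growth inhibition of A375 cells, read out with a cell viability assay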
Description: SANGER: Inhibition of human A375 cell growth in a cell viability assay.

[23] = test system: MS-1; assay type: functional, cell-based; settings: Homo sapiens;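 also: growth inhibition of MS-1 cells, read out by cell viability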
Description: SANGER: Inhibition of human MS-1 cell growth in a cell viability assay.

[24] = test system: GP5d; assay type: functional, cell-based, Homo sapiens; settings: Homo sapiens, GP5d;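 also: growth inhibition of human GP5d cells, read out with a cell viability assay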
Description: SANGER: Inhibition of human GP5d cell growth in a cell viability assay.

[25] = test system: NCI-H727; assay type: functional, cell-based, Homo sapiens; settings: Homo sapiens, NCI-H727;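 also: growth inhibition of human NCI-H727 cells, read out with a cell viability assay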
Description: SANGER: Inhibition of human NCI-H727 cell growth in a cell viability assay.

[26] = test system: A101D; assay type: functional, cell-based, Homo sapiens; settings: Homo sapiens, A101D;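 also: growth inhibition of the cell line, measured with a viability assay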
Description: SANGER: Inhibition of human A101D cell growth in a cell viability assay.

[27] = test system: NCI-H2452; assay type: functional, cell-based, Homo sapiens; settings: Homo sapiens, NCI-H2452;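 also: growth inhibition of NCI-H2452 cells, read out with a cell viability assay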
Description: SANGER: Inhibition of human NCI-H2452 cell growth in a cell viability assay.

[28] = test system: HSC-2; assay type: functional, cell-based, Homo sapiens; settings: Homo sapiens, HSC-2;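 also: growth inhibition of human HSC-2 cells, read out by a cell viability assay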
Description: SANGER: Inhibition of human HSC-2 cell growth in a cell viability assay.

[29] = test system: KYSE-510; assay type: functional, cell-based, Homo sapiens; settings: Homo sapiens, KYSE-510;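 also: cell viability readout used to measure how strongly growth of the cell line is suppressed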
Description: SANGER: Inhibition of human KYSE-510 cell growth in a cell viability assay.

[30] = test system: UACC-893; assay type: functional, cell-based, Homo sapiens; settings: Homo sapiens, UACC-893
Description: SANGER: Inhibition of human UACC-893 cell growth in a cell viability assay.

[31] = test system: LS-411N; assay type: functional, cell-based, Homo sapiens; settings: Homo sapiens, LS-411N
[32] = test system: MHH-ES-1; assay type: functional, cell-based, Homo sapiens; settings: Homo sapiens, MHH-ES-1;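 also: cell growth inhibition measured by a cell viability assay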
Description: SANGER: Inhibition of human MHH-ES-1 cell growth in a cell viability assay.

[33] = test system: EW-16; assay type: functional, cell-based, Homo sapiens; settings: Homo sapiens, EW-16;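 also: growth inhibition of human EW-16 cells, read out as cell viability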
Description: SANGER: Inhibition of human EW-16 cell growth in a cell viability assay.

[34] = test system: NCI-H226; assay type: functional, cell-based, Homo sapiens; settings: Homo sapiens, NCI-H226;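 also: cell viability read-out used to gauge growth inhibition of the cells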
Description: SANGER: Inhibition of human NCI-H226 cell growth in a cell viability assay.

[35] = test system: MLMA; assay type: functional, cell-based, Homo sapiens; settings: Homo sapiens, MLMA;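 also: growth inhibition of MLMA cells (human), determined through a cell viability readout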
Description: SANGER: Inhibition of human MLMA cell growth in a cell viability assay.

[36] = test system: AU565; assay type: functional, cell-based, Homo sapiens; settings: Homo sapiens, AU565;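 also: cell viability assay measuring growth inhibition of human AU565 cells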
Description: SANGER: Inhibition of human AU565 cell growth in a cell viability assay.

[37] = test system: EFM-19; assay type: functional, cell-based, Homo sapiens; settings: Homo sapiens, EFM-19;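 also: growth inhibition of human EFM-19 cells, measured in a cell viability assay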
Description: SANGER: Inhibition of human EFM-19 cell growth in a cell viability assay.

[38] = test system: SW1783; assay type: functional, cell-based; settings: Homo sapiens;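 also: cell growth inhibition measured with a viability assay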
Description: SANGER: Inhibition of human SW1783 cell growth in a cell viability assay.

[39] = test system: T47D; assay type: functional, cell-based, Homo sapiens; settings: Homo sapiens, T47D;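 also: growth inhibition of human T47D cells, measured with a cell viability assay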
Description: SANGER: Inhibition of human T47D cell growth in a cell viability assay.

[40] = test system: MeWo; assay type: functional, cell-based, Homo sapiens; settings: Homo sapiens, MeWo;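 also: growth inhibition of MeWo cells, determined by a cell viability readout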
Description: SANGER: Inhibition of human Mewo cell growth in a cell viability assay.

[41] = test system: M059J; assay type: functional, cell-based, Homo sapiens; settings: Homo sapiens, M059J;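 also: growth inhibition of M059J cells, read out with a cell viability assay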
Description: SANGER: Inhibition of human M059J cell growth in a cell viability assay.

[42] = test system: NCI-H1993; assay type: functional, cell-based, Homo sapiens; settings: Homo sapiens, NCI-H1993;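 also: growth inhibition of the cancer cell line, assessed with a cell viability assay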
Description: SANGER: Inhibition of human NCI-H1993 cell growth in a cell viability assay.

[43] = test system: JVM-2; assay type: functional, cell-based; settings: Homo sapiens;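 also: growth inhibition of JVM-2 cells determined by a cell viability assay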
Description: SANGER: Inhibition of human JVM-2 cell growth in a cell viability assay.

[44] = test system: SW684; assay type: functional, cell-based, Homo sapiens; settings: Homo sapiens, SW684;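 also: growth inhibition of human SW684 cells, measured by a cell viability assay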
Description: SANGER: Inhibition of human SW684 cell growth in a cell viability assay.

[45] = test system: NCI-H2170; assay type: functional, cell-based, Homo sapiens; settings: Homo sapiens, NCI-H2170;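 also: cell viability assay measuring growth inhibition of human NCI-H2170 cancer cells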
Description: SANGER: Inhibition of human NCI-H2170 cell growth in a cell viability assay.

[46] = test system: SK-LU-1; assay type: functional, cell-based, Homo sapiens; settings: Homo sapiens, SK-LU-1;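 also: cell viability assay measuring growth inhibition of human SK-LU-1 cells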
Description: SANGER: Inhibition of human SK-LU-1 cell growth in a cell viability assay.

[47] = test system: A388; assay type: functional, cell-based, Homo sapiens; settings: Homo sapiens, A388;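 also: growth inhibition of human A388 cells, read out with a cell viability assay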
Description: SANGER: Inhibition of human A388 cell growth in a cell viability assay.

[48] = test system: NCI-H1299; assay type: functional, cell-based, Homo sapiens; settings: Homo sapiens, NCI-H1299;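 also: growth inhibition of human NCI-H1299 cells, read out by a cell viability assay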
Description: SANGER: Inhibition of human NCI-H1299 cell growth in a cell viability assay.

[49] = test system: NOS-1; assay type: functional, cell-based, Homo sapiens; settings: Homo sapiens, NOS-1;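 also: growth inhibition of the human NOS-1 cell line, read out with a cell viability assay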
Description: SANGER: Inhibition of human NOS-1 cell growth in a cell viability assay.

## O=C(c1cc(Cc2n[nH]c(=O)c3ccccc23)ccc1F)N1CCN(C(=O)C2CC2)CC1 [OLAPARIB]
[1]
  IC50: > 5000 nM
[2]
  IC50: > 5000 nM
[3]
  IC50: > 5000 nM
[4]
  IC50: > 5000 nM
[5]
  IC50: > 5000 nM
[6]
  IC50: > 5000 nM
[7]
  IC50: > 5000 nM
[8]
  IC50: > 5000 nM
[9]
  IC50: > 5000 nM
[10]
  IC50: > 5000 nM
[11]
  IC50: > 5000 nM
[12]
  IC50: > 5000 nM
[13]
  IC50: > 5000 nM
[14]
  IC50: > 5000 nM
[15]
  IC50: > 5000 nM
[16]
  IC50: > 5000 nM
[17]
  IC50: > 5000 nM
[18]
  IC50: > 5000 nM
[19]
  IC50: > 5000 nM
[20]
  IC50: > 5000 nM
[21]
  IC50: > 5000 nM
[22]
  IC50: > 5000 nM
[23]
  IC50: > 5000 nM
[24]
  IC50: > 5000 nM
[25]
  IC50: > 5000 nM
[26]
  IC50: > 5000 nM
[27]
  IC50: > 5000 nM
[28]
  IC50: > 5000 nM
[29]
  IC50: > 5000 nM
[30]
  IC50: > 5000 nM
[31]
  IC50: > 5000 nM
[32]
  IC50: 1620 nM
[33]
  IC50: > 5000 nM
[34]
  IC50: > 5000 nM
[35]
  IC50: > 5000 nM
[36]
  IC50: > 5000 nM
[37]
  IC50: > 5000 nM
[38]
  IC50: > 5000 nM
[39]
  IC50: > 5000 nM
[40]
  IC50: > 5000 nM
[41]
  IC50: > 5000 nM
[42]
  IC50: > 5000 nM
[43]
  IC50: > 5000 nM
[44]
  IC50: > 5000 nM
[45]
  IC50: > 5000 nM
[46]
  IC50: > 5000 nM
[47]
  IC50: > 5000 nM
[48]
  IC50: > 5000 nM
[49]
  IC50: > 5000 nM

## CC(=O)O[C@@]12CO[C@@H]1C[C@H](O)[C@@]1(C)C(=O)[C@H](O)C3=C(C)[C@@H](OC(=O)[C@H](O)[C@@H](NC(=O)OC(C)(C)C)c4ccccc4)C[C@@](O)([C@@H](OC(=O)c4ccccc4)[C@H]21)C3(C)C [DOCETAXEL]
[1]
  IC50: 3.81 nM
[2]
  IC50: 5.31 nM
[3]
  IC50: > 10 nM
[4]
  IC50: 6.41 nM
[5]
  IC50: > 10 nM
[6]
  IC50: 0.416 nM
[7]
  IC50: 1.35 nM
[8]
  IC50: 5.9 nM
[9]
  IC50: 8.8 nM
[10]
  IC50: 5.11 nM
[11]
  IC50: 0.466 nM
[12]
  IC50: > 10 nM
[13]
  IC50: > 10 nM
[14]
  IC50: > 10 nM
[15]
  IC50: > 10 nM
[16]
  IC50: 1.07 nM
[17]
  IC50: 6.96 nM
[18]
  IC50: 0.132 nM
[19]
  IC50: > 10 nM
[20]
  IC50: > 10 nM
[21]
  IC50: 1.73 nM
[22]
  IC50: 1.21 nM
[23]
  IC50: > 10 nM
[24]
  IC50: 2.96 nM
[25]
  IC50: > 10 nM
[26]
  IC50: > 10 nM
[27]
  IC50: 2.16 nM
[28]
  IC50: 0.755 nM
[29]
  IC50: 0.84 nM
[30]
  IC50: > 10 nM
[31]
  IC50: 3.14 nM
[32]
  IC50: 0.7 nM
[33]
  IC50: 1.35 nM
[34]
  IC50: 3.68 nM
[35]
  IC50: 3.55 nM
[36]
  IC50: 1.81 nM
[37]
  IC50: 2.15 nM
[38]
  IC50: 5.7 nM
[39]
  IC50: 4.31 nM
[40]
  IC50: 5.05 nM
[41]
  IC50: 1.98 nM
[42]
  IC50: > 10 nM
[43]
  IC50: > 10 nM
[44]
  IC50: > 10 nM
[45]
  IC50: 5.35 nM
[46]
  IC50: > 10 nM
[47]
  IC50: 2.65 nM
[48]
  IC50: 8.57 nM
[49]
  IC50: > 10 nM
